From PMC2566978, “Inversion of allosteric effect of arginine on N-acetylglutamate synthase, a molecular marker for evolution of tetrapods” (BMC Biochemistry, 2008)

What was measured:
Assay in all cases: NAGS activity assay, purified enzyme
Type in all cases: biochemical
[1] = molecular target: T1, NAGS from X. tropicalis (Western clawed frog) (Xenopus tropicalis, UniProt F6X3J6); details: 50 mM glutamate, 12.5 mM AcCoA, room temperature; allosteric activator
T1 sequence (F6X3J6 39-491): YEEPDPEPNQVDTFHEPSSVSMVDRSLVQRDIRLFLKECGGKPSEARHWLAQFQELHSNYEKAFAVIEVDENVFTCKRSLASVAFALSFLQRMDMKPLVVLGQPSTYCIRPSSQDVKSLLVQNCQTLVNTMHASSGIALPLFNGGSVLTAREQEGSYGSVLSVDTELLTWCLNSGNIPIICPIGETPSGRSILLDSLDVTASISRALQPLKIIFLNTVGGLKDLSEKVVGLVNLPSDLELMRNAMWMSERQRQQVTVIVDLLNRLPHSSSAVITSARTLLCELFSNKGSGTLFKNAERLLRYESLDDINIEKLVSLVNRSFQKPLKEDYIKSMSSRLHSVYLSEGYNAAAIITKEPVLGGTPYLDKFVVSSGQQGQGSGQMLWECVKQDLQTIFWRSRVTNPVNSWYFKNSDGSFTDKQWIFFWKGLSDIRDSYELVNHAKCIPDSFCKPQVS

pufferfish NAGS = molecular target: T2, pufferfish NAGS (Takifugu rubripes, UniProt H2T4D9); details: read-out: % inhibition at 1 mM
T2 sequence (H2T4D9 51-529): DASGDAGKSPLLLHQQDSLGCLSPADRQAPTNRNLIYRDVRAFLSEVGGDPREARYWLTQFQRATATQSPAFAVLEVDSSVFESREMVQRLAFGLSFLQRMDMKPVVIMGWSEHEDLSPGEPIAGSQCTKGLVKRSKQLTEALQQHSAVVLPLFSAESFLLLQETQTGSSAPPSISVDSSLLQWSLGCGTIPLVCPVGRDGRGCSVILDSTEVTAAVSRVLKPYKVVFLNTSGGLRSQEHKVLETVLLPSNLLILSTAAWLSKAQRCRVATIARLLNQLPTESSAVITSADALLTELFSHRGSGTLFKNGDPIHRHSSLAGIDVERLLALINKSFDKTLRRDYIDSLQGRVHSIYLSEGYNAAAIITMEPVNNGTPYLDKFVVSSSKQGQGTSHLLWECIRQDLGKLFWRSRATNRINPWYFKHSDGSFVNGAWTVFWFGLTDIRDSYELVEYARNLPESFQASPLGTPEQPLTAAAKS

zebrafish NAGS = molecular target: T3, zebrafish NAGS (Danio rerio, UniProt E7FCP8); details: read-out: % inhibition at 1 mM
T3 sequence (E7FCP8 40-527): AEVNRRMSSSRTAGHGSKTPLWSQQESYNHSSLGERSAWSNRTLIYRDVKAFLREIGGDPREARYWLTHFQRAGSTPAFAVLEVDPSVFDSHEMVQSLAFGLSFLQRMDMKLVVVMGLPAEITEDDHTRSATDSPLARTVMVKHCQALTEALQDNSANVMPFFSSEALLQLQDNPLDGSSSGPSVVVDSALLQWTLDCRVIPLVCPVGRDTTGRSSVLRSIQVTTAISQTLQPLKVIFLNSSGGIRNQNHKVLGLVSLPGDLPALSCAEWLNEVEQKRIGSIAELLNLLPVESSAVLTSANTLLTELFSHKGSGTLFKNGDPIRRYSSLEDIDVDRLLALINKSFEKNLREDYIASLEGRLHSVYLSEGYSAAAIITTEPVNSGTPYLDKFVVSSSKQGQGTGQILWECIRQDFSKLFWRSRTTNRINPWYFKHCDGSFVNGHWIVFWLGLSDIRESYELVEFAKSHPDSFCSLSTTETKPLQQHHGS

[2] = molecular target: T4, NAGS from X. laevis (African clawed frog) (Xenopus laevis, UniProt A0A8J1M136); details: 50 mM glutamate, 12.5 mM AcCoA, room temperature; allosteric activator
T4 construct: gene LOC108702180
T4 sequence (A0A8J1M136 31-491): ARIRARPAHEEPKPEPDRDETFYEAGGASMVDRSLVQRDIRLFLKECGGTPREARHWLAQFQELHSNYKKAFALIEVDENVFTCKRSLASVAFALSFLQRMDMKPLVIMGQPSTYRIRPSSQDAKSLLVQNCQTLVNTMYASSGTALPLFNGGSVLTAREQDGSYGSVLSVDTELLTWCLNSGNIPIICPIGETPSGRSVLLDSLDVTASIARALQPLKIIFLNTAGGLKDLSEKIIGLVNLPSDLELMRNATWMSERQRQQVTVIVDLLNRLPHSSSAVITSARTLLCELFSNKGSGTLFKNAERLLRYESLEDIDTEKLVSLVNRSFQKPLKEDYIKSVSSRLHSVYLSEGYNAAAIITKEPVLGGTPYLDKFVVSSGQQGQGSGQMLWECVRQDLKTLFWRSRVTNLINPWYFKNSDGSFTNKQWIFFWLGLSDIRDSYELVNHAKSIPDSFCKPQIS

% activation at 1 mM [1]: 38%
inhibition at 1000 µM (pufferfish NAGS): ~20%
inhibition at 1000 µM (zebrafish NAGS): ~50%
% activation at 1 mM [2]: 20%
Structure (SMILES): N=C(N)NCCC[C@H](N)C(=O)O [L-arginine]
